A short description of series [1]: Brain concentrations of harmine, DMT and metabolites by UHPLC-MS after s.c. harmine and/or DMT. Particulars: for concentration at 95 min / concentration at 65 min: rat, subcutaneous.
Procedure: Groups of (n = 6) rats received either saline, harmine (1 mg/kg), DMT (1 mg/kg), or harmine + DMT (1 mg/kg each) as subcutaneous injections, as indicated in Figure 1.
After 45 min, rats were sacrificed by decapitation, and the brains dissected into cerebellum and frontal cortex samples for radioactivity measurement and chemical analysis, thus 65 min after harmine + DMT.
Series [2] has as its system 5-HT2A receptors. Particulars: cited from earlier work.
For series [3], the target named is T1, MAO-A (Rattus norvegicus, UniProt P21396).
T1 sequence (P21396 1-526): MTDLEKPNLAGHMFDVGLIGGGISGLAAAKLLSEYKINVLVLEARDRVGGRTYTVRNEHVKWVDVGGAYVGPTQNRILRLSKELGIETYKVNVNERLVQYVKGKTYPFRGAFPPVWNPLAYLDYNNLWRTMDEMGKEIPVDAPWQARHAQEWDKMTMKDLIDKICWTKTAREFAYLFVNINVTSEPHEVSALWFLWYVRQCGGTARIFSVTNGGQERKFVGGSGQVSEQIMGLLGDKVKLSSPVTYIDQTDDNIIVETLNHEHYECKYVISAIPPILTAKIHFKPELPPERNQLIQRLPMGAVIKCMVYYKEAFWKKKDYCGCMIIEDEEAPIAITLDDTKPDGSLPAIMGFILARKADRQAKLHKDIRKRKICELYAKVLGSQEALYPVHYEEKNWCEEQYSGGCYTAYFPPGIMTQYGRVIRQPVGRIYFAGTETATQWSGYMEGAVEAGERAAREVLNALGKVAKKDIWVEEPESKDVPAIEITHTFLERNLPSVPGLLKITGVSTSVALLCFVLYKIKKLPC
Also noted: method as in Maschauer et al., 2015. The conditions noted are these: ref Maschauer et al., 2015; read-out: Apparent affinity (KD) at MAO-binding sites in living rat brain; cited from earlier work.

For series [4], the target named is MAO-A. The conditions noted are these: ref Maschauer et al., 2015; read-out: KD in vitro; cited from earlier work.
Series [5] addresses T1, MAO-A. Briefly: Apparent affinity at MAO binding sites in living brain. The conditions noted are these: from values of ref Maschauer et al., 2015. It is filed as in vivo.
[6] abbreviates: Exp 1, group DMT, average of regions.
Setting [7] is: Exp 1, group Har + DMT, average of regions.
[8] abbreviates: Exp 1, group Har + DMT, cerebellum.
[9] abbreviates: Exp 1, group Har + DMT, front cort.
The mark [10] stands for this setting: Exp 2, group Har + DMT, average of regions.
The mark [11] stands for this setting: Exp 2, group Har + DMT, cerebellum.
[12] abbreviates: Exp 2, group Har + DMT, front cort.
Where [13] appears, read: brain (average of frontal cortex and cerebellum), 1 mg/kg, Molar concentration, Exp 1, group DMT, average of regions.
The mark [14] stands for this setting: brain (average of frontal cortex and cerebellum), Molar concentration, Exp 1, group Har + DMT, average of regions.
Setting [15] is: brain (average of frontal cortex and cerebellum), Molar concentration, Exp 2, group Har + DMT, average of regions.
Where [16] appears, read: cerebellum, 1 mg/kg, Molar concentration, Exp 1, group DMT, cerebellum.
The mark [17] stands for this setting: cerebellum, Molar concentration, Exp 1, group Har + DMT, cerebellum.
Where [18] appears, read: cerebellum, Molar concentration, Exp 2, group Har + DMT, cerebellum.
Setting [19] is: frontal cortex, 1 mg/kg, Molar concentration, Exp 1, group DMT, front cort.
[20] abbreviates: frontal cortex, Molar concentration, Exp 1, group Har + DMT, front cort.
Where [21] appears, read: frontal cortex, Molar concentration, Exp 2, group Har + DMT, front cort.

The values below come from paper PMC10568461, “A pilot study of cerebral metabolism and serotonin 5-HT2A receptor occupancy in rats treated with the psychedelic tryptamine DMT in conjunction with the MAO inhibitor harmine” (Frontiers in Pharmacology, 2023).

The structures appear in SMILES notation.

Regarding `O=C(O)Cc1c[nH]c2ccccc12` [3-IAA, indole-3-acetic acid], the “Percentage of total molar concentration of DMT and metabolites” value (from here on “Percentage”) in series [1] (setting [6]) turned out to be 97.5%; in series [1] (Exp 1, group DMT, cerebellum), 97.9%; in series [1] (Exp 1, group DMT, front cort), 97.3%; in series [1] (setting [7]) it was 64.7%; in series [1] (setting [8]), 65.3%; in series [1] (setting [9]), 64.2%. In addition, the “Percentage” value in series [1] (setting [10]) is 25.9%; in series [1] (setting [11]), 27.5%; in series [1] (setting [12]) it was 24.7%. Further, the Brain concentration is 398.5 (128.3) ng/g in series [1] (Experiment 1, cerebellum, group DMT (1 mg/kg s.c.), 95 min, mean (SD)); 194.1 (117.2) ng/g in series [1] (Experiment 1, cerebellum, group Har + DMT (1 mg/kg each s.c.), 95 min, mean (SD)); 503.9 (137.7) ng/g in series [1] (Experiment 1, frontal cortex, group DMT (1 mg/kg s.c.), 95 min, mean (SD)); 257.5 (103.6) ng/g in series [1] (Experiment 1, frontal cortex, group Har + DMT (1 mg/kg each s.c.), 95 min, mean (SD)); 530.7 (129.8) ng/g in series [1] (Experiment 2, cerebellum, group Har + DMT (3 mg/kg each s.c.), 65 min, mean (SD)); 652.1 (186.5) ng/g in series [1] (Experiment 2, frontal cortex, group Har + DMT (3 mg/kg each s.c.), 65 min, mean (SD)). Further, the “Lower cerebral 3-IAA concentration after co-administration of harmine and DMT” value in series [1] (Experiment 1, versus DMT alone) turned out to be 50%. For the same compound, the concentration at 95 min in series [1] (setting [13]) is 2580 nM; in series [1] (setting [14]), 1290 nM; in series [1] (cerebellum, 1 mg/kg, Brain concentration, Experiment 1, cerebellum, after DMT alone (1 mg/kg)), 2300 nM; in series [1] (cerebellum, 1 mg/kg, Brain concentration, Experiment 1, cerebellum, group DMT (1 mg/kg s.c.), 95 min, mean (SD)) it was 398 ng/g; in series [1] (setting [16]), 2270 nM; in series [1] (cerebellum, Brain concentration, Experiment 1, cerebellum, after harmine + DMT (1 mg/kg each)), 1100 nM. The concentration at 95 min in series [1] (cerebellum, Brain concentration, Experiment 1, cerebellum, group Har (harmine 1 mg/kg s.c.), 95 min after drug, mean (SD)) was 11.1 ng/g; in series [1] (cerebellum, Brain concentration, Experiment 1, cerebellum, group Har + DMT (1 mg/kg each s.c.), 95 min, mean (SD)) it was 194 ng/g; in series [1] (setting [17]), 1110 nM; in series [1] (frontal cortex, 1 mg/kg, Brain concentration, Experiment 1, frontal cortex, after DMT alone (1 mg/kg)), 2900 nM; in series [1] (frontal cortex, 1 mg/kg, Brain concentration, Experiment 1, frontal cortex, group DMT (1 mg/kg s.c.), 95 min, mean (SD)), 504 ng/g; in series [1] (setting [19]), 2880 nM. The concentration at 95 min turned out to be 1500 nM in series [1] (frontal cortex, Brain concentration, Experiment 1, frontal cortex, after harmine + DMT (1 mg/kg each), 95 min); 14.1 ng/g in series [1] (frontal cortex, Brain concentration, Experiment 1, frontal cortex, group Har (harmine 1 mg/kg s.c.), 95 min, mean (SD)); 258 ng/g in series [1] (frontal cortex, Brain concentration, Experiment 1, frontal cortex, group Har + DMT (1 mg/kg each s.c.), 95 min, mean (SD)); 1470 nM in series [1] (setting [20]). The concentration at 65 min in series [1] (setting [15]) is 3380 nM; in series [1] (cerebellum, Brain concentration, Experiment 2, cerebellum, after harmine + DMT (3 mg/kg each)), 3000 nM; in series [1] (cerebellum, Brain concentration, Experiment 2, cerebellum, group Har + DMT (3 mg/kg each s.c.), 65 min, mean (SD)), 531 ng/g; in series [1] (setting [18]), 3030 nM; in series [1] (frontal cortex, Brain concentration, Experiment 2, frontal cortex, after harmine + DMT (3 mg/kg each), 65 min), 3700 nM; in series [1] (frontal cortex, Brain concentration, Experiment 2, frontal cortex, group Har + DMT (3 mg/kg each s.c.), 65 min, mean (SD)), 652 ng/g. Further, in series [1] (setting [21]), the concentration at 65 min is 3720 nM.

For `C[N+](C)([O-])CCc1c[nH]c2ccccc12` [DMT-N-Oxide, DMT-N-oxide], the Molar concentration was found to be 3.29 nmol/L in series [1] (setting [6]); 3.16 nmol/L in series [1] (Exp 1, group DMT, cerebellum); 3.43 nmol/L in series [1] (Exp 1, group DMT, front cort); 27.52 nmol/L in series [1] (setting [7]); 30.49 nmol/L in series [1] (setting [8]); 24.54 nmol/L in series [1] (setting [9]). In addition, the results for the Molar concentration in series [1] (setting [10]), in series [1] (setting [11]) and in series [1] (setting [12]) were 90.73 nmol/L, 131.9 nmol/L and 49.57 nmol/L, respectively. In addition, the “Percentage” value in series [1] (setting [6]) stood at 0.1%; in series [1] (Exp 1, group DMT, cerebellum), 0.1%; in series [1] (Exp 1, group DMT, front cort), 0.1%; in series [1] (setting [7]), 1.4%; in series [1] (setting [8]), 1.8%; in series [1] (setting [9]), 1.1%. For the same compound, the results for the “Percentage” value in series [1] (setting [10]), in series [1] (setting [11]) and in series [1] (setting [12]) were 0.7%, 1.2% and 0.3%, respectively.

In the case of `CN(C)CCc1c[nH]c2cccc(OP(=O)(O)O)c12` [psilocybin], in series [2] (PET with [^11C]Cimbi-36, ref Madsen et al., 2019), the “Occupancy at 5-HT2A receptors” value is given as no more than 70%. In addition, the “Occupancy at 5-HT2A receptors in human frontal cortex” value in series [2] (PET with [^18F]altanserin, ref Hasler et al., 2009a) was no more than 35%.

As for `Cc1nccc2c1[nH]c1cc(OCCF)ccc12` [[^18F]fluoroethyl-harmol], the Kd is 300 nM in series [3] and 2 nM in series [4].

As to `CNCCc1c[nH]c2ccccc12` [NMT, N-methyltryptamine], the “Percentage” value in series [1] (setting [6]) was determined as 0.0%; in series [1] (Exp 1, group DMT, cerebellum), 0.0%; in series [1] (Exp 1, group DMT, front cort) it was 0.0%; in series [1] (setting [7]), 0.1%; in series [1] (setting [8]) it was 0.1%; in series [1] (setting [9]), 0.0%. Further, the entries for the “Percentage” value in series [1] (setting [10]), in series [1] (setting [11]) and in series [1] (setting [12]) were 0.1%, 0.2% and 0.1%, respectively. For the same compound, the concentration at 95 min in series [1] (setting [13]) was 0.15 nM; in series [1] (setting [14]), 1.14 nM; in series [1] (setting [16]), 0.15 nM; in series [1] (setting [17]), 1.38 nM; in series [1] (setting [19]), 0.16 nM; in series [1] (setting [20]) it was 0.89 nM. Besides, the concentration at 65 min came out at 15.9 nM in series [1] (setting [15]), 20.7 nM in series [1] (setting [18]) and 11.2 nM in series [1] (setting [21]).

Turning to `Cc1nccc2c1[nH]c1cc(OCC[18F])ccc12` [[^18F]fluoroethyl-harmol], the “In vitro/in vivo affinity difference” value in series [5] is given as 150 fold.
